Source: ChEMBL document CHEMBL4725284, “Junceellolide B, a novel inhibitor of Hepatitis B virus” (Bioorg Med Chem, 2020)

Legend:
Hepatitis B virus = assay: Antiviral activity against HBV infected in human HepAD38 cells assessed as inhibition of viral DNA at 10 uM incubated for 4 days by SYBR green dye based RT-PCR analysis relative to control; type: functional; conditions: HePAD38, 96 h, time 4 day
[1] = Cytotoxicity against human HePAD38 cells assessed as cell viability incubated for 72 hrs by MTT assay; type: cell-based
[2] = Cytotoxicity against human HepG2 cells assessed as cell viability incubated for 72 hrs by MTT assay; type: cell-based

Structure (SMILES)	inhibition at 10 µM (Hepatitis B virus) [%]	CC50 at 72 h [1] [µM]	CC50 at 72 h [2] [µM]
C=C1CC[C@H](OC(=O)CC(C)C)[C@]2(C)[C@@H](OC(C)=O)C[C@@H](OC(C)=O)/C(C)=C\[C@@H]3OC(=O)[C@H](C)[C@@]3(O)[C@@H](OC(C)=O)[C@@H]12	0	> 100	> 100
Nc1ccn([C@@H]2CS[C@H](CO)O2)c(=O)n1 [LAMIVUDINE]	70		
CC(=O)OCC1=C/[C@@H]2OC(=O)[C@H](C)[C@@]2(O)[C@@H](OC(C)=O)[C@H]2[C@]3(CC[C@H](OC(C)=O)[C@]2(C)[C@@H](OC(C)=O)/C=C\1)CO3	0	> 100	> 100
C=C1CC[C@H](OC(C)=O)[C@]2(C)[C@@H](OC(=O)COC(C)=O)/C=C\C(=C)[C@H](Cl)[C@@H]3OC(=O)[C@H](C)[C@@]3(O)[C@@H](OC(C)=O)[C@@H]12	6	> 100	> 100
C=C1CC[C@H](OC(C)=O)[C@]2(C)[C@@H](OC(C)=O)C[C@@H](OC(C)=O)/C(CCl)=C\[C@@H]3OC(=O)[C@H](C)[C@@]3(O)[C@@H](OC(C)=O)[C@@H]12	0	> 100	> 100
C=C1CC[C@H](OC(C)=O)[C@@]2(C)[C@H]1[C@H](OC(C)=O)[C@@]13O[C@@H](C(=C)[C@H](Cl)[C@@H]1OC(=O)[C@@H]3C)[C@@H](O)[C@@H]2OC(C)=O	10	> 100	> 100
CC(=O)OCC(=O)O[C@H]1/C=C\C(CCl)=C/[C@@H]2OC(=O)[C@H](C)[C@@]2(O)[C@@H](OC(C)=O)[C@H]2[C@@](O)(CCl)CC[C@H](OC(C)=O)[C@]12C	58	> 100	> 100
C=C1[C@H]2O[C@H]2[C@H](OC(C)=O)[C@@]2(C)[C@@H](OC(C)=O)CC[C@]3(CO3)[C@@H]2[C@H](OC(C)=O)[C@]2(O)[C@@H](C)C(=O)O[C@H]2[C@H]1Cl	29	> 100	> 100
C=C1CC[C@H](OC(C)=O)[C@]2(C)[C@@H](OC(C)=O)C[C@@H](OC(C)=O)C(=C)[C@H](Cl)[C@@H]3OC(=O)[C@H](C)[C@@]3(O)[C@@H](OC(C)=O)[C@@H]12	63	> 100	> 100
C=C1/C=C/[C@H](OC(C)=O)[C@@]2(C)[C@@H](OC(C)=O)C[C@H](OC(C)=O)[C@]3(CO3)[C@@H]2[C@H](OC(C)=O)[C@]2(O)[C@@H](C)C(=O)O[C@H]2[C@H]1Cl	1	> 100	> 100
C=C1[C@H](Cl)[C@@H]2OC(=O)[C@H](C)[C@]23O[C@@H]1[C@@H](O)[C@H](OC(C)=O)[C@@]1(C)[C@@H](OC(C)=O)[C@@H](OC(C)=O)C[C@]2(CO2)[C@@H]1[C@@H]3OC(C)=O	31	> 100	> 100
C=C1[C@@H](OC(C)=O)C[C@H](OC(C)=O)[C@]2(C)[C@@H](OC(C)=O)C[C@@H](OC(C)=O)/C(C)=C\[C@@H]3OC(=O)[C@H](C)[C@@]3(O)[C@@H](OC(C)=O)[C@@H]12	0	> 100	> 100
C=C1/C=C\[C@H](OC(=O)COC(C)=O)[C@@]2(C)[C@@H](OC(C)=O)CC[C@]3(CO3)[C@@H]2[C@H](OC(C)=O)[C@]2(O)[C@@H](C)C(=O)O[C@H]2[C@H]1Cl	0	> 100	> 100
C=C1/C=C/[C@H](OC(C)=O)[C@@]2(C)[C@@H](OC(C)=O)[C@@H](OC(C)=O)C[C@]3(CO3)[C@@H]2[C@H](OC(C)=O)[C@]2(O)[C@@H](C)C(=O)O[C@H]2[C@H]1Cl [FRAJUNOLIDE I]	41	> 100	> 100
C=C1/C=C/[C@H](OC(=O)CC)[C@@]2(C)[C@@H](OC(C)=O)[C@@H](OC(C)=O)C[C@]3(CO3)[C@@H]2[C@H](OC(C)=O)[C@]2(O)[C@@H](C)C(=O)O[C@H]2[C@H]1Cl	0	> 100	> 100
C=C1[C@H](Cl)[C@@H]2OC(=O)[C@H](C)[C@]23O[C@@H]1[C@@H](O)[C@H](OC(C)=O)[C@@]1(C)[C@@H](OC(C)=O)CC[C@]2(CO2)[C@@H]1[C@@H]3OC(C)=O	0	> 100	> 100
C=C1[C@H](Cl)[C@@H]2OC(=O)[C@H](C)[C@]23O[C@@H]1[C@@H](OC(C)=O)[C@H](OC(C)=O)[C@@]1(C)[C@@H](OC(C)=O)CC[C@]2(CO2)[C@@H]1[C@@H]3OC(C)=O	17	> 100	> 100
C=C1CC[C@H](OC(C)=O)[C@]2(C)[C@@H](OC(C)=O)C[C@@]3(O)O[C@@]4([C@H](C=C3CO)OC(=O)[C@@H]4C)[C@@H](OC(C)=O)[C@@H]12	0	> 100	> 100
C=C1[C@H](OC(C)=O)C[C@H](OC(C)=O)[C@@]2(C)[C@@H](OC(C)=O)CC[C@]3(CO3)[C@@H]2[C@H](OC(C)=O)[C@]2(O)[C@@H](C)C(=O)O[C@H]2[C@H]1Cl	39	> 100	> 100
C=C1/C=C\[C@H](OC(=O)COC(=O)CC(C)C)[C@@]2(C)[C@@H](OC(C)=O)CC[C@]3(CO3)[C@@H]2[C@H](OC(C)=O)[C@]2(O)[C@@H](C)C(=O)O[C@H]2[C@H]1Cl [FRAJUNOLIDE G]	0	> 100	> 100
C=C1CC[C@H](OC(C)=O)[C@]2(C)[C@@H](OC(C)=O)C[C@@H](OC(C)=O)/C(C(=O)OC)=C\[C@@H]3OC(=O)[C@H](C)[C@@]3(O)[C@@H](OC(C)=O)[C@@H]12	1	> 100	> 100
C=C1C[C@H](OC(C)=O)[C@H](OC(C)=O)[C@]2(C)[C@@H](OC(C)=O)/C=C/C(=C)[C@H](Cl)[C@@H]3OC(=O)[C@H](C)[C@@]3(O)[C@@H](OC(C)=O)[C@@H]12 [FRAJUNOLIDE H]	25	> 100	> 100
C=C1CC[C@H](OC(C)=O)[C@]2(C)[C@@H](OC(C)=O)C[C@@H](OC(C)=O)/C(C)=C\[C@@H]3OC(=O)[C@H](C)[C@@]3(O)[C@@H](OC(C)=O)[C@@H]12	31	> 100	> 100
C=C1/C=C\[C@H](OC(C)=O)[C@@]2(C)[C@@H](OC(C)=O)CC[C@]3(CO3)[C@@H]2[C@H](OC(C)=O)[C@]2(O)[C@@H](C)C(=O)O[C@H]2[C@H]1Cl	0	> 100	> 100
CC(=O)OCC1=C/[C@@H]2OC(=O)[C@H](C)[C@@]2(O)[C@@H](OC(C)=O)[C@H]2[C@]3(CC[C@H](OC(C)=O)[C@]2(C)[C@@H](OC(=O)COC(=O)CC(C)C)/C=C\1)CO3	0	> 100	> 100
C=C1[C@H](Cl)[C@@H]2OC(=O)[C@H](C)[C@]23O[C@]1(O)C[C@H](OC(C)=O)[C@@]1(C)[C@@H](OC(C)=O)CC[C@]2(CO2)[C@@H]1[C@@H]3OC(C)=O	4	> 100	> 100
